# Assay results: patent EP0450097B1, “BENZOHETEROCYCLIC COMPOUNDS” (OTSUKA PHARMACEUTICAL CO., LTD., priority 1989, dated 1991)
# pIC50: −log10 of the molar value.
# Molecular target: T1, V₂ receptor (Rattus norvegicus, UniProt Q00788)
# T1 construct: Using rat kidney plasma membrane preparations; from tissue; host or cells: rat kidney plasma membranes
# Assay: V₂ receptor binding assay ([³H]-Arg-vasopressin, rat kidney plasma membrane preparations)
# Conditions: 4°C for 3 hours
# Protocol: Using rat kidney plasma membrane preparations prepared according to O. Hechter's method [cf: J. Bio. […] After incubation, the mixture is filtered using the glass filter (GF/F) so as to separate the membrane preparation combined with vasopressin and then washed twice with the buffer (5 ml). This glass filter is taken out and mixed with liquid scintillation cocktail. The amount of [³H]-vasopressin combined with the membrane is measured by liquid scintillation counter and the rate of the inhibitory effect of the test compound is estimated according to the following equation. Rate of the inhibitory effect (%) = 100 -(C1 - B1)/(C0 - B1)X 100 [formula] C¹: The amount of [³H]-vasopressin combined with the membrane in the presence of the test compound (in prescribed amount). C⁰: The amount of [³H)-vasopressin combined with the membrane in the absence of the test compound. B¹: The amount of [³H]-vasopressin combined with the membrane in the presence of the excess amount of vasopressin (10⁻⁶ M).
# The results are expressed as IC₅₀ values, which is the concentration of the test compound required to achieve the inhibitory effect in the rate of 50 %.
# T1 sequence (Q00788 whole entry): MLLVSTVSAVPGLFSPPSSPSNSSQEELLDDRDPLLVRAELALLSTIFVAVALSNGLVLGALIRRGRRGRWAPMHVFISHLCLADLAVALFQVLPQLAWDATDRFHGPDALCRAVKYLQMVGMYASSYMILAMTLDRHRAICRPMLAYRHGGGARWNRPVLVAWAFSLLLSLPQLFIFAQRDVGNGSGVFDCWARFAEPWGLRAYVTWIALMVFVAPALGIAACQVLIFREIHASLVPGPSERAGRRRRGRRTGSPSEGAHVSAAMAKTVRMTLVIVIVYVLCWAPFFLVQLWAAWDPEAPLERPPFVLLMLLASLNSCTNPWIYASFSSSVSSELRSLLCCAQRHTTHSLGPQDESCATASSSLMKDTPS
row,Structure (SMILES),pIC50
1,CC(=O)N(C)C1CCCN(C(=O)c2ccc(NC(=O)c3cc(Cl)cc(Cl)c3)cc2)c2ccccc21 (centres unmarked) [compound 142],8.10
2,Cc1cc(NC(=O)c2ccc(Cl)cc2Cl)ccc1C(=O)N1CCCC(N(C)C)c2ccccc21 (centres unmarked) [compound 220],7.59
3,CCN(C)C1CCCN(C(=O)c2ccc(NC(=O)c3ccccc3C)cc2)c2ccccc21 (centres unmarked) [compound 228],7.54
4,CC1Cc2ccccc2N(C(=O)c2ccc(NC(=O)c3ccccc3)cc2)C1 (centres unmarked) [compound 45],6.72
5,Cc1ccccc1C(=O)Nc1ccc(C(=O)N2CCCC(NC(=O)CNC(=O)OC(C)(C)C)c3ccccc32)cc1 (centres unmarked) [compound 301],6.85
6,Cc1ccc2c(c1)CCCN2C(=O)c1ccc(NC(=O)c2cc(Cl)cc(Cl)c2)cc1 [compound 94],7.02
7,Cc1ccccc1C(=O)Nc1ccc(C(=O)N2CCCC(N(C)CC#N)c3ccccc32)cc1 (centres unmarked) [compound 265],7.60
8,CN(C)C1CCCN(C(=O)c2ccc(NC(=O)c3cccc([N+](=O)[O-])c3)cc2)c2ccccc21 (centres unmarked) [compound 289],7.15
9,Nc1cccc(C(=O)Nc2ccc(C(=O)N3CCCc4ccccc43)cc2)c1 [compound 5],5.92
10,CC(=O)ON=C1CCCN(C(=O)c2ccc(NC(=O)c3ccccc3Cl)cc2)c2ccccc21 [compound 234],6.85
11,CN1CCN(C(=O)c2ccc(NC(=O)C3CCCCC3)cc2)c2ccccc2C1 [compound 79],6.28
12,CNC1CCN(C(=O)c2ccc(NC(=O)c3cc(Cl)cc(Cl)c3)cc2)c2ccccc21 (centres unmarked) [compound 97],7.62
13,O=C(Nc1ccc(C(=O)N2CCCC(NC3CC3)c3ccccc32)c(Cl)c1)c1ccccc1Cl (centres unmarked) [compound 200],7.62
14,O=C(Nc1ccc(C(=O)N2CCCc3ccccc32)cc1)c1ccccc1[N+](=O)[O-] [compound 9],6.28
15,Cc1ccccc1C(=O)Nc1ccc(C(=O)N2CCC[S+]([O-])c3ccccc32)cc1 (centres unmarked) [compound 171],6.06
16,Cc1ccccc1C(=O)Nc1ccc(C(=O)N2CCCC(N(C)S(C)(=O)=O)c3ccccc32)cc1 (centres unmarked) [compound 258],6.70

row,Structure (SMILES),pIC50
1,Cc1ccccc1C(=O)Nc1ccc(C(=O)N2CCCC(O)(CO)c3ccccc32)cc1 (centres unmarked) [compound 237],7.39
2,CN(C)C1CCCN(C(=O)c2ccc(NC(=O)c3ccccc3Cl)cc2Cl)c2ccccc21 (centres unmarked) [compound 184],7.64
3,Cc1ccccc1C(=O)Nc1ccc(C(=O)N2CCCC(N(C)CC(O)CO)c3ccccc32)cc1 (centres unmarked) [compound 264],7.52
4,C=CCNC1CCCN(C(=O)c2ccc(NC(=O)c3ccccc3C)cc2Cl)c2ccccc21 (centres unmarked) [compound 201],7.64
5,O=C(CN1CCCCC1)Nc1ccc(C(=O)N2CCCCc3ccccc32)cc1 [compound 103],6.27
6,CN(C)C1CCCN(C(=O)c2ccc(NC(=O)c3ccc(F)cc3F)cc2)c2ccccc21 (centres unmarked) [compound 213],7.48
7,CC(=O)NC1Cc2ccccc2N(C(=O)c2ccc(NC(=O)c3cc(Cl)cc(Cl)c3)cc2)C1 (centres unmarked) [compound 99],5.80
8,Cc1ccccc1C(=O)Nc1ccc(C(=O)N2CCCC(N(C)C(=O)Cn3ccnc3)c3ccccc32)cc1 (centres unmarked) [compound 297],7.29
9,CN(C)C1CCCN(C(=O)c2ccc(NC(=O)c3ccccc3Cl)cc2F)c2ccccc21 (centres unmarked) [compound 223],7.66
10,COc1cccc(NCC(=O)Nc2ccc(C(=O)N3CCCCc4ccccc43)cc2)c1 [compound 108],6.92
11,O=C(Nc1ccccc1C(=O)N1CCCc2ccccc21)c1ccc2ccccc2c1 [compound 20],5.85
12,O=C(COc1ccccc1)Nc1ccc(C(=O)N2CCCCc3ccccc32)cc1 [compound 104],6.43
13,Cc1ccccc1C(=O)Nc1ccc(C(=O)N2CCC(C)C(N(C)C)c3ccccc32)cc1 (centres unmarked) [compound 254],7.80
14,COc1cccc(OCC(=O)Nc2ccc(C(=O)N3CCCCc4ccccc43)cc2)c1 [compound 111],7.06
15,CN(C)C1CCCN(C(=O)c2ccc(NC(=O)c3ccccc3Cl)cc2)c2ccccc21 (centres unmarked) [compound 180],7.47
16,CC1Cc2ccccc2N(C(=O)c2ccc(NC(=O)C3CCCCC3)cc2)C1 (centres unmarked) [compound 44],7.30
